Where two headings read alike, the source gives them in different places.
Columns and labels:
[1] = tested on: 2D dhBMEC monolayers (ZO1); test: Immunocytochemistry of zona occludens-1 in 2D dhBMEC monolayers; type: cell-based, human
Experimental: Antibodies used in the study are described in Table 3. LabTek 8-chamber slides (Cat. No. 155411, Thermo Fisher Scientific) were coated with 25 μg mL^−1 fibronectin and 50 μg mL^−1 collagen IV overnight at 37° C. BC1 cell were seeded in BBB induction medium at 5×10^5 cells cm^−2. On day 1 after seeding, dhBMECs were washed twice with BBB maintenance medium and incubated in the medium overnight. On day 2, the cells were washed twice with BBB maintenance medium and treated with 1.5 μM, 5 μM, and 10 μM of melittin, diluted in the medium, for 2 minutes, 5 minutes, 10 minutes, or 90 minutes. The resulting melittin dosages, calculated as the product of melittin concentration and incubation time, were 3 μM·minutes, 25 μM·minutes, 100 μM minutes, and 450 μM·minutes. A negative control without melittin was included with every experiment. After the melittin incubation, the cells were washed twice with 1×PBS azide and fixed in 3.7% paraformaldehyde solution for 10 minutes or methanol for 15 minutes. The fixed cells were washed with 1×PBS azide and incubated in blocking solution (10% goat serum, 0.3% TritonX-100 in 1×PBS azide) at 4° C. for 1-2 days. The cells were incubated with primary antibodies for 2 hours at room temperature. […]

[2] = tested on: mouse brain (blood-brain barrier)
From the text: Briefly, male C57BL/6J mice (n=43, 6-8 weeks old, 20-25 g, Jackson Laboratory) were anesthetized with 2% isoflurane. The common carotid artery (CCA) bifurcation was exposed and the occipital artery branching off from the external carotid artery (ECA) was coagulated. The ECA and the pterygopalatine artery (PPA) were temporarily ligated with 4-0 silk sutures. A temporary ligature using a 4-0 suture was placed on the carotid bifurcation and the proximal CCA was permanently ligated. A microcatheter (PE-8-100, SAI Infusion Technologies) was flushed with 2% heparin (1,000 U mL^−1, heparin sodium, Upjohn), inserted into the CCA via a small arteriotomy, and advanced into the internal carotid artery (ICA).
For each animal, 150 μL of solution was infused at a rate of 150 μL minute^−1. […] The brains were harvested immediately after Evans Blue injection, sectioned in brain slicer matrix (Zivic Instruments) to produce 1 mm slabs.
Animal anesthesia was maintained at 1.5-2% during the MRI scan. Mice were placed on a water-heated animal bed equipped with temperature and respiratory control. Respiration was monitored and maintained at 30-60 minutes^−1. All MRI experiments were performed on a Bruker 11.7T MRI scanner. Baseline T2 (TR/TE=2,500/30 ms), susceptibility-weighted imaging (SWI) (TR/TE=378/8 ms), T1 (TR/TE 350/6.7 ms)-weighted, dynamic gradient echo echo-planar imaging (GE-EPI, TR/TE 1250/9.7 ms, field of view (FOV)=14×14 mm, matrix=128×128, acquisition time=60 s and 24 repetitions) and dynamic T1 imaging (TR/TE 2000/3. 5ms, field of view=14×14 mm, acquisition time=8 seconds and 20 repetitions) images of the brain were acquired. The microcatheter was connected to a syringe mounted on an MRI compatible programmable syringe pump (PHD 2000, Harvard Apparatus Inc.). Gadolinium (Gd; Prohance) dissolved in saline at 1:50 was infused intra-arterially at the rate of 150 μL minute^−1 under dynamic GE-EPI MRI for visualization of perfusion territory. […] To quantify BBB status, T1 intensities in cortex, hippocampus and thalamus/hypothalamus were compared between ipsilateral and contralateral hemispheres. T1 hyperintensity was corrected for possible asymmetry using pre-contrast T1 images and normalized as the ratio of ipsilateral to contralateral intensity. Additionally, the area of BBBO (mm^2) was calculated by conversion of T1 images to binary using the Auto Threshold function (plugin v1.17; Maximum Entropy method) [Kapur, J. N., P. K. Sahoo, and A. K. C. Wong, Computer Vision, Graphics, and Image Processing, 1985, 29(3): p. 273-285] in ImageJ. T2-weighted and SWI images were acquired at the same timepoints for detection of brain damage and microhemorrhage. Subsequently, animals were sacrificed for further histological assessment.
To determine the area and region of perfusion territory, we first calculated the contrast enhancement maps at the time where contrast enhancement was at its maximum. As Gd causes negative contrast under T2 imaging, we calculated the contrast enhancement as (SIpre-SIpost)/SIpre, where SI is the signal intensity of an MR image. Histogram was plotted for all pixels in the brain region in a contrast enhancement map and further fitted into two Gaussian distributions, assuming there were two dominant populations for non-contrast enhanced and contrast-enhanced pixels, respectively. The cutoff value to separate the two populations was then determined. The fraction of contrast enhanced areas was calculated by the ratio of the number of pixels, whose values are larger than the cutoff value, to the total number of pixels in the brain. A similar method was used to determine the BBBO territory.

[3] = Solubility stated in text; type: physicochemical; settings: vs 1-10 μM
[4] = tested on: mice; settings: intraperitoneal administration; cited from earlier work

**Q.** Which results are given for `CC[C@H](C)[C@H](NC(=O)CN)C(=O)NCC(=O)N[C@@H](C)C(=O)N[C@H](C(=O)N[C@@H](CC(C)C)C(=O)N[C@@H](CCCCN)C(=O)N[C@H](C(=O)N[C@@H](CC(C)C)C(=O)N[C@H](C(=O)N[C@H](C(=O)NCC(=O)N[C@@H](CC(C)C)C(=O)N1CCC[C@H]1C(=O)N[C@@H](C)C(=O)N[C@@H](CC(C)C)C(=O)N[C@H](C(=O)N[C@@H](CO)C(=O)N[C@@H](Cc1c[nH]c2ccccc12)C(=O)N[C@H](C(=O)N[C@@H](CCCCN)C(=O)N[C@@H](CCCNC(=N)N)C(=O)N[C@@H](CCCCN)C(=O)N[C@@H](CCCNC(=N)N)C(=O)N[C@@H](CCC(N)=O)C(=O)N[C@@H](CCC(N)=O)C(N)=O)[C@@H](C)CC)[C@@H](C)CC)[C@@H](C)O)[C@@H](C)O)C(C)C)C(C)C` [melittin]?
**A.** monolayer integrity ([1]; 450 μM·minute dose): significant cell detachment was observed; ZO1 protein expression compared to controls ([1]; doses of 3-100 μM·minute): did not result in large changes; Evans Blue leakage ([2]; 1 μM·minute): No leakage of Evans Blue; dose relative to solubility limit (fold below) ([2]; 3 μM·min melittin): ~120 fold; Evans Blue leakage ([2]; 3 μM·minute, ipsilateral hemisphere): reproducible leakage of Evans Blue; Evans Blue extravasation ([2]; 3 μM·minute, 24 hours): no Evans Blue extravasation; leakage of Gd (T1 MRI) ([2]; 3 μM·minute, 24 hours): marginal leakage; T1 hyperintensity ([2]; 3 μM·minute, cortex): much lower; BBB status (Gd-enhanced MRI and Evans Blue) ([2]; 3 μM·minute, day 7): full recovery of the BBB; T1 intensity, ipsilateral vs contralateral ([2]; 3 μM·minute, hippocampus and thalamus/hypothalamus, following dosing): significant increase; brain territory opened (area of BBBO, T1 thresholding) ([2]; 3 μM·minute, within the hippocampus, immediately after dosing): 5.70±1.73 mm^2; Evans Blue leakage ([2]; 5 μM·minute): Widespread leakage of Evans Blue; reduction of BBBO area ([2]; at 24 hours and 7 days): ~20 fold; minimum effective dose for BBBO ([2]; intra-arterial (internal carotid artery), 1 minute): 3 µM·min; difference in dose required for BBBO, human microvessels (20 μM·minute) vs mouse brain (3 μM·minute) ([2]; mouse, in vivo): approximately 7 fold; solubility relative to the concentrations for membrane activity [3]: more than 30 fold; LD50 [4]: 3.2 mg/kg

— patent US20240009269A1 (priority 2020, published 2024)
